Data published in US20150018376A1, “PYRIMIDIN-4-YL)OXY)-1H-INDOLE-1-CARBOXAMIDE DERIVATIVES AND USE THEREOF” (NOVARTIS AG, priority 2013, published 2015).

Tests used:
KDR (GST-KDR(807-1356)) = target: T1, KDR (GST-KDR(807-1356)) (Homo sapiens, UniProt P35968); assay: KDR protein kinase activity, LanthaScreen TR-FRET; assay type: biochemical; conditions: 2 μM ATP, 1 hour incubation
T1 construct: GST-KDR(807-1356), internally produced recombinant protein; GST (N); made in house
Description: A generic assay set-up has been run at room temperature on a liquid handling robot. To the assay plates containing 50 nL compound or control solutions, 4.5 μL of ATP mix (20 mM Tris-HCl pH7.4, 1 mM DTT, 0.025% Tween20, 0.01 mM Na3VO4, 10 mM MgCl2, 1 mM MnCl2, and 4 μM ATP) were added per well. Subsequently, 4.5 μL of enzyme-substrate mix (20 mM Tris-HCl pH7.4, 1 mM DTT, 0.025% Tween20, 0.01 mM Na3VO4, 10 mM MgCl2, 1 mM MnCl2, 0.5% BSA, 100 nM fluorescein labeled poly(EAY), and 0.76 nM KDR (GST-KDR(807-1356), internally produced recombinant protein) were added.
The final reaction volume is 9.05 μL with final reagent concentrations of 20 mM Tris-HCl pH7.4, 1 mM DTT, 0.025% Tween20, 0.01 mM Na3VO4, 10 mM MgCl2, 1 mM MnCl2, including a generic concentration of 2 μM ATP, 50 nM of substrate fluorescein labeled poly(EAY), and 0.38 nM enzyme.
After 1 hour of incubation the kinase reactions have been stopped by the addition of 4.5 μL of stop solution (20 mM Tris-HCl pH7.4, 1 mM DTT, 0.025% Tween20, 0.01 mM Na3VO4, 50 mM EDTA) immediately followed by 4.5 μL of antibody solution (20 mM Tris-HCl pH7.4, 1 mM DTT, 0.025% Tween20, 0.01 mM Na3VO4, 1.72 μg/ml Tb-PY20).
After an incubation time of 45 min in the dark, the plates were transferred into a fluorescence reader and counted in time resolved fluorescence mode (settings according to the reagent supplier's recommendation). The effect of compound on the enzymatic activity was obtained from end point measurement.

[1] = Stability of crystalline form; assay type: physicochemical; conditions: HCl salt
From the text: Crystalline form B of the HCl salt of N-(1-methyl-5-(trifluoromethyl)-1H-pyrazol-3-yl)-5-((6-((methylamino)methyl)pyrimidin-4-yl)oxy)-1H-indole-1-carboxamide was obtained using the same procedure as in Example 5 above.

human hepatocytes = assay: Hepatocyte viability during incubation (ViaCount assay); assay type: cell-based; conditions: 10 μmol/L, percent viable cells relative to total cells
Description: (§1) After thawing the cryopreserved hepatocytes, the viable cells were enriched by centrifugation in HepatoZYME cell culture medium (Gibco Invitrogen). For this purpose, the cells were added to 45 mL of a 37° C. warm HepatoZYME, and centrifuged at room temperature, at 50 g for 5 min. The supernatant containing dead cells was discarded and the cells in the pellet were re-suspended in HepatoZYME.
(§2) The viability of the re-suspended hepatocytes was determined by a Guava EasyCyte™ Mini system using the ViaCount® assay as described by the supplier (Guava Technologies, Hayward, Calif., USA). After cell counting, the cell concentration was adjusted to approx. 1·10^6 viable cells/mL by adding HepatoZYME. Subsequently, the incubations were started by adding [^14C] N-(1-methyl-5-(trifluoromethyl)-1H-pyrazol-3-yl)-5-(6-((methylamino)methyl)pyrimidin-4-yloxy)-1H-indole-1-carboxamide and non-labeled N-(1-methyl-5-(trifluoromethyl)-1H-pyrazol-3-yl)-5-(6-((methylamino)methyl)pyrimidin-4-yloxy)-1H-indole-1-carboxamide as a solution in DMSO. The final concentration of DMSO in the incubations was 0.1% (v/v).
(§3) To check the chemical stability of [^14C] N-(1-methyl-5-(trifluoromethyl)-1H-pyrazol-3-yl)-5-(6-((methylamino)methyl)pyrimidin-4-yloxy)-1H-indole-1-carboxamide under the incubation conditions, the compound was incubated at a concentration of 10 μmol/L in HepatoZYME without hepatocytes. A second series of control incubations was performed with hepatocytes of all species in the absence of the test compound to investigate the effect of the latter on the viability. These experiments were performed in a 12×6 mL MultiWell™ plate (Art. 393503, Beckton Dickinson).
(§4) The incubations were performed at 37° C. under a humidified atmosphere of 95% relative humidity and 5% CO2 in a Heraeus incubator/cytoperm (Kendro Laboratory Products AG, Zürich, Switzerland). During the incubations, the plates and flasks were shaken at 300 strokes per minute. The viability of the hepatocytes was determined after 6 h (end of incubation).

monkey hepatocytes = assay: as above; assay type: cell-based; conditions: 10 μmol/L, percent viable cells relative to total cells
Description: as §1, §2, §3, §4

rabbit hepatocytes = assay: as above; assay type: cell-based; conditions: 10 μmol/L, percent viable cells relative to total cells
Description: as §1, §2, §3, §4

rat hepatocytes = assay: as above; assay type: cell-based; conditions: 10 μmol/L, percent viable cells relative to total cells
Description: as §1, §2, §3, §4

[2] = tested on: hepatocytes from rat, rabbit, monkey, and human; assay: Hepatocyte viability during incubation, all species summarised; assay type: cell-based; conditions: 10 μmol/L, range over four species; initially 70-93%; controls without compound 4-21%
Description: as §1
as §2, with “(v/v). […]” for “(v/v).”
The incubations were performed at 37° C. under a humidified atmosphere of 95% relative humidity and 5% CO2 in a Heraeus incubator/cytoperm (Kendro Laboratory Products AG, Zürich, Switzerland). […] The viability of the hepatocytes was determined after 6 h (end of incubation).

[3] = Control incubations in the absence of hepatocytes or liver microsomes (chemical stability); assay type: in vitro ADME; conditions: 10 μmol/L in HepatoZYME without hepatocytes (6 h) or buffer without microsomes (60 min), 37° C.
Description: as §3
Microsomal incubations for metabolite profiles were performed at 10 μmol/L of [^14C] N-(1-methyl-5-(trifluoromethyl)-1H-pyrazol-3-yl)-5-(6-((methylamino)methyl)pyrimidin-4-yloxy)-1H-indole-1-carboxamide (approx. 50% radiolabeled) with one time point investigated (60 min). Incubations were performed at 37° C. in 0.1 mol/L sodium phosphate buffer pH 7.4. The final concentrations in the incubation cocktail were: 4 mmol/L UDPGA (Sigma-Aldrich), 1 mmol/L β-NADPH (Sigma-Aldrich), 5 mmol/L MgCl2, and 60 μg alamethicin (Sigma-Aldrich) per mg microsomal protein. The system was left to incubate for 10 min before adding the test compound to allow the pore formation with the alamethicin. The metabolic reaction was started by the addition of [^14C] […]

T1 sequence (P35968 807-1356): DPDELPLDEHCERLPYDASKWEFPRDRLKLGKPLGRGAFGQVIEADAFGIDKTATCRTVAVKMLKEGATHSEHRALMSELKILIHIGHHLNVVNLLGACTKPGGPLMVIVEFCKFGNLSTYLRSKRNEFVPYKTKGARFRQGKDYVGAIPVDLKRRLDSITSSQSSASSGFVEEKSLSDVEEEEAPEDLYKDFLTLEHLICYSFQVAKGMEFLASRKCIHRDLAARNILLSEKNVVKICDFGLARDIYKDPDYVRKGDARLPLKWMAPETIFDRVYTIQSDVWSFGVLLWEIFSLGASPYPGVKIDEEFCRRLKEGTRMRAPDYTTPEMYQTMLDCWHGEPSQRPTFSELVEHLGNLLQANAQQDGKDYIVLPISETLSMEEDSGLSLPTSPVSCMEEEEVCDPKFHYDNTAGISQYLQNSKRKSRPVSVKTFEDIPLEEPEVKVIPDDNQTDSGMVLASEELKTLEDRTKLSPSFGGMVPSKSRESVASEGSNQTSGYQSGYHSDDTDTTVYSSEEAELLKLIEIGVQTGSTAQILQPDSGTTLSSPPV

For `Cn1nc(NC(=O)n2ccc3cc(Oc4cc(/C=[N+](/C)[O-])ncn4)ccc32)cc1C(F)(F)F` [Example 1, (Z)-N-((6-((1-((1-methyl-5-(trifluoromethyl)-1H-pyrazol-3-yl)carbamoyl)-1H-indol-5-yl)oxy)pyrimidin-4-yl)methylene)methanamine oxide], the IC50 (KDR (GST-KDR(807-1356))) was < 1 nM.
For `Cn1nc(NC(=O)n2ccc3cc(Oc4cc(C(N)=O)ncn4)ccc32)cc1C(F)(F)F` [Example 2, 5-((6-Carbamoylpyrimidin-4-yl)oxy)-N-(1-methyl-5-(trifluoromethyl)-1H-pyrazol-3-yl)-1H-indole-1-carboxamide], the IC50 (KDR (GST-KDR(807-1356))) was 20 nM.
With `Cn1nc(NC(=O)n2ccc3cc(Oc4cc(CN)ncn4)ccc32)cc1C(F)(F)F` [Example 3, 5-(6-(aminomethyl)pyrimidin-4-yloxy)-N-(1-methyl-5-(trifluoromethyl)-1H-pyrazol-3-yl)-1H-indole-1-carboxamide] the IC50 (KDR (GST-KDR(807-1356))) was < 1 nM.
With `CNCc1cc(Oc2ccc3c(ccn3C(=O)Nc3cc(C(F)(F)F)n(C)n3)c2)ncn1` [Form B, N-(1-methyl-5-(trifluoromethyl)-1H-pyrazol-3-yl)-5-((6-((methylamino)methyl)pyrimidin-4-yl)oxy)-1H-indole-1-carboxamide] the “stability of the crystalline form” value [1] was “transient form that converts back to Form A”.
With `CNCc1cc(Oc2ccc3c(ccn3C(=O)Nc3cc(C(F)(F)F)n(C)n3)c2)ncn1` [[^14C] N-(1-methyl-5-(trifluoromethyl)-1H-pyrazol-3-yl)-5-(6-((methylamino)methyl)pyrimidin-4-yloxy)-1H-indole-1-carboxamide] the “Viability at 6 h” value (human hepatocytes) was 25%, the “Viability at 6 h” value (monkey hepatocytes) was 42% and the “Viability at 6 h” value (rabbit hepatocytes) was 8%. For the same molecule, the “Viability at 6 h” value (rat hepatocytes) was 22%, the “viability of the hepatocytes after 6 hours” value [2] was 8-42% and the “chemical stability in the incubation media” value [3] was “confirmed the stability of the compound”.
